Reference: publication PMC5578999, “Novel quinolone chalcones targeting colchicine-binding pocket kill multidrug-resistant cancer cells by inhibiting tubulin activity and MRP1 function” (Scientific Reports, 2017)

Tests used:
Assay in all cases: NCI-60 SRB screen
Assay type in all cases: cell-based
DU-145 = system: DU-145
NCI-H226 = system: NCI-H226
NCI-H23 = system: NCI-H23
IGROV1 = system: IGROV1
A549/ATCC = system: A549/ATCC
OVCAR-4 = system: OVCAR-4
EKVX = system: EKVX
OVCAR-5 = system: OVCAR-5
UO-31 = system: UO-31
HL-60(TB) = system: HL-60(TB)
SR = system: SR
NCI-H322M = system: NCI-H322M
[1] = Homo sapiens, read-out: LC50 (the source's name)

COc1ccc2[nH]c(=O)c(/C=C/C(=O)c3ccccc3OC)cc2c1 [CTR-20, (E)-6-Methoxy-3-(3-(2-methoxyphenyl)-3-oxoprop-1-enyl) quinolin-2(1H)-one]
Log10GI50 (DU-145): -6.28 Molar | Log10LC50 (DU-145): -5.26 Molar | Log10TGI (DU-145): -5.71 Molar | TGI (DU-145): 1.96E-6 Molar | Growth Percent (DU-145; 1.00E-5 Molar): 10.76% | GI50 (DU-145; Homo sapiens): 0.529 µM | CC50 (DU-145; [1]): 5.47 µM | Percent Growth (DU-145; Log10 Concentration -4.0): -93% | Percent Growth (DU-145; Log10 Concentration -5.0): -79% | Percent Growth (DU-145; Log10 Concentration -6.0): 33% | Percent Growth (DU-145; Log10 Concentration -7.0): 95% | Percent Growth (DU-145; Log10 Concentration -8.0): 98% | Log10GI50 (NCI-H226): -5.48 Molar | Log10LC50 (NCI-H226): > -4.00 Molar | Log10TGI (NCI-H226): -4.73 Molar | TGI (NCI-H226): 1.85E-5 Molar | Growth Percent (NCI-H226; 1.00E-5 Molar): 38.93% | GI50 (NCI-H226; Homo sapiens): 3.34 µM | CC50 (NCI-H226; [1]): > 100 µM | Percent Growth (NCI-H226; Log10 Concentration -4.0): -47% | Percent Growth (NCI-H226; Log10 Concentration -5.0): 17% | Percent Growth (NCI-H226; Log10 Concentration -6.0): 86% | Percent Growth (NCI-H226; Log10 Concentration -7.0): 99% | Percent Growth (NCI-H226; Log10 Concentration -8.0): 96% | Log10GI50 (NCI-H23): -5.88 Molar | Log10LC50 (NCI-H23): -4.66 Molar | Log10TGI (NCI-H23): -5.41 Molar | TGI (NCI-H23): 3.93E-6 Molar | Growth Percent (NCI-H23; 1.00E-5 Molar): 21.29% | GI50 (NCI-H23; Homo sapiens): 1.33 µM | CC50 (NCI-H23; [1]): 21.6 µM | Percent Growth (NCI-H23; Log10 Concentration -4.0): -64% | Percent Growth (NCI-H23; Log10 Concentration -5.0): -43% | Percent Growth (NCI-H23; Log10 Concentration -6.0): 63% | Percent Growth (NCI-H23; Log10 Concentration -7.0): 87% | Percent Growth (NCI-H23; Log10 Concentration -8.0): 88% | Log10GI50 (IGROV1): -6.24 Molar | Log10LC50 (IGROV1): > -4.00 Molar | Log10TGI (IGROV1): -4.77 Molar | TGI (IGROV1): 1.70E-5 Molar | Growth Percent (IGROV1; 1.00E-5 Molar): 14.55% | GI50 (IGROV1; Homo sapiens, IGROV-1): 0.582 µM | CC50 (IGROV1; Homo sapiens, IGROV-1, read-out: LC50 (the source's name)): > 100 µM | Percent Growth (IGROV1; Log10 Concentration -4.0): -27% | Percent Growth (IGROV1; Log10 Concentration -5.0): 8% | Percent Growth (IGROV1; Log10 Concentration -6.0): 40% | Percent Growth (IGROV1; Log10 Concentration -7.0): 82% | Percent Growth (IGROV1; Log10 Concentration -8.0): 99% | Log10GI50 (A549/ATCC): -5.68 Molar | Log10LC50 (A549/ATCC): -4.42 Molar | Log10TGI (A549/ATCC): -4.98 Molar | TGI (A549/ATCC): 1.04E-5 Molar | Growth Percent (A549/ATCC; 1.00E-5 Molar): 10.42% | GI50 (A549/ATCC; Homo sapiens): 2.09 µM | CC50 (A549/ATCC; [1]): 37.9 µM | Percent Growth (A549/ATCC; Log10 Concentration -4.0): -88% | Percent Growth (A549/ATCC; Log10 Concentration -5.0): 2% | Percent Growth (A549/ATCC; Log10 Concentration -6.0): 73% | Percent Growth (A549/ATCC; Log10 Concentration -7.0): 114% | Percent Growth (A549/ATCC; Log10 Concentration -8.0): 106% | Log10GI50 (OVCAR-4): -5.39 Molar | Log10LC50 (OVCAR-4): -4.11 Molar | Log10TGI (OVCAR-4): -4.63 Molar | TGI (OVCAR-4): 2.32E-5 Molar | Growth Percent (OVCAR-4; 1.00E-5 Molar): 50.80% | GI50 (OVCAR-4; Homo sapiens): 4.07 µM | CC50 (OVCAR-4; [1]): 76.9 µM | Percent Growth (OVCAR-4; Log10 Concentration -4.0): -61% | Percent Growth (OVCAR-4; Log10 Concentration -5.0): 35% | Percent Growth (OVCAR-4; Log10 Concentration -6.0): 73% | Percent Growth (OVCAR-4; Log10 Concentration -7.0): 95% | Percent Growth (OVCAR-4; Log10 Concentration -8.0): 94% | Log10GI50 (EKVX): -5.69 Molar | Log10LC50 (EKVX): -4.25 Molar | Log10TGI (EKVX): -4.98 Molar | TGI (EKVX): 1.05E-5 Molar | Growth Percent (EKVX; 1.00E-5 Molar): 37.76% | GI50 (EKVX; Homo sapiens): 2.05 µM | CC50 (EKVX; [1]): 55.8 µM | Percent Growth (EKVX; Log10 Concentration -4.0): -67% | Percent Growth (EKVX; Log10 Concentration -5.0): 1% | Percent Growth (EKVX; Log10 Concentration -6.0): 72% | Percent Growth (EKVX; Log10 Concentration -7.0): 91% | Percent Growth (EKVX; Log10 Concentration -8.0): 86% | Log10GI50 (OVCAR-5): -5.71 Molar | Log10LC50 (OVCAR-5): -4.33 Molar | Log10TGI (OVCAR-5): -4.98 Molar | TGI (OVCAR-5): 1.04E-5 Molar | Growth Percent (OVCAR-5; 1.00E-5 Molar): 12.07% | GI50 (OVCAR-5; Homo sapiens): 1.97 µM | CC50 (OVCAR-5; [1]): 46.6 µM | Percent Growth (OVCAR-5; Log10 Concentration -4.0): -75% | Percent Growth (OVCAR-5; Log10 Concentration -5.0): 1% | Percent Growth (OVCAR-5; Log10 Concentration -6.0): 70% | Percent Growth (OVCAR-5; Log10 Concentration -7.0): 98% | Percent Growth (OVCAR-5; Log10 Concentration -8.0): 93% | Log10GI50 (UO-31): -6.02 Molar | Log10LC50 (UO-31): -5.28 Molar | Log10TGI (UO-31): -5.64 Molar | TGI (UO-31): 2.28E-6 Molar | Growth Percent (UO-31; 1.00E-5 Molar): 23.62% | GI50 (UO-31; Homo sapiens): 0.958 µM | CC50 (UO-31; [1]): 5.27 µM | Percent Growth (UO-31; Log10 Concentration -4.0): -100% | Percent Growth (UO-31; Log10 Concentration -5.0): -88% | Percent Growth (UO-31; Log10 Concentration -6.0): 49% | Percent Growth (UO-31; Log10 Concentration -7.0): 81% | Percent Growth (UO-31; Log10 Concentration -8.0): 87% | Log10GI50 (HL-60(TB)): -6.69 Molar | Log10LC50 (HL-60(TB)): > -4.00 Molar | Log10TGI (HL-60(TB)): -6.05 Molar | TGI (HL-60(TB)): 8.83E-7 Molar | Growth Percent (HL-60(TB); 1.00E-5 Molar): -2.46% | GI50 (HL-60(TB); Homo sapiens): 0.206 µM | CC50 (HL-60(TB); [1]): > 100 µM | Percent Growth (HL-60(TB); Log10 Concentration -4.0): -37% | Percent Growth (HL-60(TB); Log10 Concentration -5.0): -12% | Percent Growth (HL-60(TB); Log10 Concentration -6.0): -4% | Percent Growth (HL-60(TB); Log10 Concentration -7.0): 75% | Percent Growth (HL-60(TB); Log10 Concentration -8.0): 97% | Log10GI50 (SR): -7.18 Molar | Log10LC50 (SR): > -4.00 Molar | Log10TGI (SR): -4.99 Molar | TGI (SR): 1.03E-5 Molar | Growth Percent (SR; 1.00E-5 Molar): 2.69% | GI50 (SR; Homo sapiens): 0.0656 µM | LC50 (50% lethal concentration) (SR; Homo sapiens): > 100 µM | Percent Growth (SR; Log10 Concentration -4.0): -13% | Percent Growth (SR; Log10 Concentration -6.0): 21% | Percent Growth (SR; Log10 Concentration -7.0): 41% | Percent Growth (SR; Log10 Concentration -8.0): 92% | Log10GI50 (NCI-H322M): -5.62 Molar | Log10LC50 (NCI-H322M): -4.48 Molar | Log10TGI (NCI-H322M): -4.98 Molar | TGI (NCI-H322M): 1.04E-5 Molar | Growth Percent (NCI-H322M; 1.00E-5 Molar): 18.31% | GI50 (NCI-H322M; Homo sapiens): 2.4 µM | CC50 (NCI-H322M; [1]): 33.5 µM | Percent Growth (NCI-H322M; Log10 Concentration -4.0): -97% | Percent Growth (NCI-H322M; Log10 Concentration -5.0): 2% | Percent Growth (NCI-H322M; Log10 Concentration -6.0): 80% | Percent Growth (NCI-H322M; Log10 Concentration -7.0): 93% | Percent Growth (NCI-H322M; Log10 Concentration -8.0): 94%
